Source: publication PMC3509539, “seco-Briarellinone and Briarellin S, Two New Eunicellin-Based Diterpenoids from the Panamanian Octocoral Briareum asbestinum” (Marine Drugs, 2012)
Values joined by “and” are separate entries in the source; they are usually repeats but may differ in a detail not shown here. Equal values may be shown once.

Tests used:
[1] = tested on: NO production by thioglycolate elicited peritoneal macrophages from C57Bl/6 mice stimulated with LPS; assay: Inhibition of NO production induced by LPS in macrophages (Griess); assay type: cell-based, mouse (C57Bl/6); details: LPS 1 μg/mL; for IC50: Mus musculus, Peritoneal macrophage, primary murine macrophages, compound added 1 h before the stimulus, NO after 24 h
From the text: The anti-inflammatory properties of diterpenes from natural sources have been described previously. However, anti-inflammatory activity of the briarellins family has not been evaluated before. The inhibition of NO production is frequently used as an indicator of anti-inflammatory activity. NO is produced by a family of enzymes called NO synthases (NOS) and it mediates many physiological processes. Inflammatory conditions lead to production of high levels of NO regulated by the inducible NOS (iNOS) enzyme. NO is produced by many cell types in vitro in response to several stimuli such as microbial products (e.g., bacterial lipopolisacharide (LPS)), cytokines, viral proteins, among others. We evaluated the production of NO by primary murine macrophages stimulated with LPS (1 μg/mL) in the presence or absence of different concentrations of compounds 1–3. […] The levels of NO found at higher concentrations (20 μg/mL) of compound 1 might be attributed to the non pyrogen-free conditions of the isolation and purification process of compounds. Possible contaminations with potential microbial products in the compounds preparations disguise the inhibitory effect expected at these concentrations. […] Further studies are necessary to find out if compound 3 is able to inhibit other signaling pathways leading to the production of inflammatory mediators different than NO.
Figure 4 Inhibition of nitric oxide (NO) production induced by lipopolisacharides (LPS) in macrophages. […] (B) Cell viabilities were assessed using 3-(4,5-dimethylthiazol-2-yl)-2,5-diphenyltetrazolium bromide (MTT) assay after collection of the supernatant. […]
To determine the anti-inflammatory capacity of compounds 1–3, thioglycolate elicited macrophages from C57Bl/6 mice were used. […] The concentration of NO was measured using the Griess Reagent System from Promega. […]
Data are presented as mean ± S.E.M. Results were analyzed using a statistical software package (GraphPad Prism 5). […]

[2] = tested on: peritoneal macrophages from C57Bl/6 mice; assay: Cytotoxicity testing, MTT assay; assay type: cell-based, mouse (C57Bl/6); details: inhibitory concentrations 5–20 μg/mL, macrophages after collection of the supernatant
Experimental: Figure 4 Inhibition of nitric oxide (NO) production induced by lipopolisacharides (LPS) in macrophages. (A) Peritoneal macrophages from C57Bl/6 mice were treated with different concentrations of compounds 1–3 (1, 2, 5, 10, or 20 μg/mL) 1 h before the stimulus with LPS (1 μg/mL). After 24 h of stimulus with LPS, supernatants were collected for NO determination. (B) Cell viabilities were assessed using 3-(4,5-dimethylthiazol-2-yl)-2,5-diphenyltetrazolium bromide (MTT) assay after collection of the supernatant. Results represent mean ± S.E.M. and are representative of two different experiments. * P < 0.005 compared with LPS stimulus alone. C, control; Comp, compound. To evaluate the cytotoxicity of compounds 1–3, we used the MTT (Methylthiazolyldiphenyl-tetrazolium bromide) assay. Cell supernatants were removed for NO determination and were added to each well, 100 μL of MTT at a concentration of 0.5 mg/mL dissolved in RPMI. The assay plate was incubated overnight at 37 °C in 5% of CO2 atmosphere. In this assay the MTT is reduced to formazan by the activity of NAD-dependent dehydrogenase of living cell mitochondria to form a purple product. […] The color was analyzed at 570 nm using a micro-ELISA plate reader. The percent of viable cells was calculated using the formula: % viability = (ODsample × 100%)/(ODcontrol). […]

Structure (SMILES)	IC50 [1]	Cell viability (MTT) [2]	Effect on the production of NO induced by LPS in macrophages ([1]; 1, 2, 5, 10 or 20 μg/mL, 24 h)
CC(=O)CC1OC2C3C(CC(=O)C(C)(O)C13)C(C)COC2(C)C=CC=O (centres unmarked) [compound 1, seco-Briarellinone]	1.71 µg/mL and 4.7 µM	do not interfere with the cell viability	–
C=C1CC2OC3C4C(CC(=O)C(C)(O)C24)C(C)COC3(C)C(OC(=O)CCCCCCC)CC1O (centres unmarked) [compound 2, Briarellin S]	10 µg/mL and 20.4 µM	do not interfere with the cell viability	–
CC(=O)CC1OC2[C@@H]3C(C[C@H](C)[C@H](OC(C)=O)[C@H]13)[C@H](C)CO[C@]2(C)/C=C/C=O (some centres unmarked) [compound 3, seco-asbestinin]	–	–	did not show any significant effect
